Tested on: peripheral blood monocytes
Experiment: Ex vivo uptake of fluorescent Aβ42 by peripheral blood monocytes from adjuvanted mice
Format: in vivo, C57BL/6 mice
Conditions: 24 hrs after i.m. injection, FIG. 21; QS21 5 μg
Text: To begin to examine the function of the increase of monocytes in the peripheral blood, we examined the capacity of those monocytes to uptake Aβ42 in a test tube. In order to measure that phagocytic activity, we have used fluorescent HiLyteFluo Aβ42 (Anaspec Inc).
We examined the capacity of monocytes to uptake Aβ42 in a test tube. In order to measure that phagocytic activity we have used fluorescent HiLyteFluo Aβ42 (Anaspec Inc).
Preparation of cells: Peripheral blood was drawn from C57BL/6 mice via cardiac puncture with lithium-heparin as anticoagulant, 24-Hour after injection of the adjuvants used herein. Red blood cell lysis was performed twice on pooled blood with Ammonium Chloride-based Buffer (Sigma, Steinheim, Germany) and cells were counted with the EasyCount™ System (Immunicon). […]
Samples were acquired on a flow cytometer (BD FACSCanto II) and data analyzed with the FACSDiva software (BD Biosciences).
Monocytes were identified by their Side/Forward scatter properties, excluding debris and gated as CD3-/CD45R/B220-/Ly-6G-/NK1.1-(Lineage-)/CD11b+ cells. Aβ uptake was assessed by reporting the percentage and Mean Fluorescence Intensity (GeoMean) of positive HiLyte fluor488 Aβ1-42 cells among gated monocytes.

QS21 [reference compound]
ex vivo Aβ uptake by mouse peripheral blood monocytes: does not promote

From patent publication US20130216614A1, “IMMUNOGENIC COMPOSITIONS AND METHODS FOR TREATING NUEROLOGIC DISORDERS” (Glaxosmithkline Biologicals S.A., priority 2010, published 2013)
